According to patent US11964971B2, “Methods and compositions for modulating splicing” (Skyhawk Therapeutics, Inc., priority 2019, dated 2024):

Tests used:
SMN protein = SMN protein assay (MSD) in SMA patient fibroblasts (GM03813); assay type: cell-based, human
Procedure, shortened: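 SMA patient fibroblasts GM03813 (7000 cells/well) treated 48 h with compounds from 2.5 μM to 0.6 nM. Lysate SMN protein quantified by MSD immunoassay against an SMN standard curve (1 to 19.5 μg/ml) on each plate, giving absolute amounts.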

[1] = test system: MDR1-MDCK cell monolayers; conditions: dog, MDCK-MDR1, 120 min, 5 μM, pH 7.4
MDR1 = assay: in vitro; conditions: dog; for Papp A→B at 120 min, 5 μM: MDCK-MDR1, pH 7.4, MDCK-MDR1: Papp A-B (10^−6, cm/s); for Papp B→A at 120 min, 5 μM: MDCK-MDR1, pH 7.4, MDCK-MDR1: Papp B-A (10^−6, cm/s)
MDR1 (P-gp) = assay: MDCK-MDR1 permeability assay, blood-brain-barrier penetration potential; conditions: dog, MDCK-MDR1, pH 7.4, MDCK-MDR1 Efflux Ratio

Row | SMILES | EC50 (SMN protein) | MDCK-MDR1: % Recov A-B (%) [1] | MDCK-MDR1: % Recov B-A (%) [1] | Papp A→B at 120 min, 5 μM (MDR1) | Papp B→A at 120 min, 5 μM (MDR1) | efflux ratio at 120 min, 5 μM (MDR1 (P-gp))
1 | Cc1cc(-c2ccc(-c3cnc(N(C)[C@@H]4CC5CC[C@H](N5)[C@@H]4F)cn3)c(O)c2)cc(=O)[nH]1 (single isomer, unassigned) [Compound 77E1] | 501 to 10000 nM | 64% | 71% | 0.34 ×10⁻⁶ cm/s | 21.9 ×10⁻⁶ cm/s | 64
2 | Cc1cc(-c2ccc(-c3cnc(N(C)[C@H]4C[C@@H]5CCC(N5)[C@H]4F)cn3)c(O)c2)cc(=O)[nH]1 (single isomer, unassigned) [Compound 77E2] | 501 to 10000 nM | 44% | 50% | 0.32 ×10⁻⁶ cm/s | 14.9 ×10⁻⁶ cm/s | 47
3 | CN(c1cnc(-c2ccc(C3=CC(=O)NC3)cc2O)cn1)[C@@H]1CC2CC[C@H](N2)[C@@H]1F (single isomer, unassigned) [Compound 78E1] | 501 to 10000 nM | 81% | 85% | 0.77 ×10⁻⁶ cm/s | 41 ×10⁻⁶ cm/s | 53
4 | CN(c1cnc(-c2ccc(-c3nnco3)cc2O)cn1)[C@@H]1CC2CC[C@H](N2)[C@@H]1F (single isomer, unassigned) [Compound 80E1] | 101 to 500 nM | 63% | 76% | 5.24 ×10⁻⁶ cm/s | 21.5 ×10⁻⁶ cm/s | 4
5 | CN(c1cnc(-c2ccc(-c3nnco3)cc2O)cn1)[C@H]1C[C@@H]2CCC(N2)[C@H]1F (single isomer, unassigned) [Compound 80E2] | 501 to 10000 nM | 73% | 80% | 8.23 ×10⁻⁶ cm/s | 30.8 ×10⁻⁶ cm/s | 4
6 | CN(c1cnc(-c2ccc(-c3cc[nH]c(=O)c3)cc2O)cn1)[C@@H]1CC2COC[C@H](N2)[C@@H]1F (single isomer, unassigned) [Compound 82E1] | 501 to 10000 nM | 83% | 87% | 0.51 ×10⁻⁶ cm/s | 39.2 ×10⁻⁶ cm/s | 77
7 | CN(c1cnc(-c2ccc(-c3cc[nH]c(=O)c3)cc2O)cn1)[C@H]1C[C@@H]2COCC(N2)[C@H]1F (single isomer, unassigned) [Compound 82E2] | 501 to 10000 nM | 45% | 54% | 0.27 ×10⁻⁶ cm/s | 32.2 ×10⁻⁶ cm/s | 120
8 | CN(c1cnc(-c2ccc(C3=CCOC3)cc2O)cn1)[C@@H]1CC2CC[C@H](N2)[C@@H]1F (single isomer, unassigned) [Compound 84E1] | 501 to 10000 nM | 26% | 59% | 3.01 ×10⁻⁶ cm/s | 7.82 ×10⁻⁶ cm/s | 3
9 | CN(c1cnc(-c2ccc(C3=CCOC3)cc2O)cn1)[C@H]1C[C@@H]2CCC(N2)[C@H]1F (single isomer, unassigned) [Compound 84E2] | 16 to 50 nM | 28% | 66% | 4.64 ×10⁻⁶ cm/s | 14.9 ×10⁻⁶ cm/s | 3
10 | C[C@@]12CC[C@@](C)(N1)[C@@H](F)[C@@H](Oc1cnc(-c3ccc(-c4cn[nH]c4)cc3O)cn1)C2 [Compound 2E1, 2-(5-(((1R,2R,35,5S)-2-fluoro-1,5-dimethyl-8-azabicyclo[3.2.1]octan-3-yl)oxy)pyrazin-2-yl)-5-(1H-pyrazol-4-yl)phenol] | 501 to 10000 nM | 71% | 86% | 7.93 ×10⁻⁶ cm/s | 40.7 ×10⁻⁶ cm/s | 5
11 | C[C@]12CC[C@](C)(N1)[C@H](F)[C@H](Oc1cnc(-c3ccc(-c4cn[nH]c4)cc3O)cn1)C2 [Compound 2E2, 2-(5-(((1S,2S,3R,5R)-2-fluoro-1,5-dimethyl-8-azabicyclo[3.2.1]octan-3-yl)oxy)pyrazin-2-yl)-5-(1H-pyrazol-4-yl)phenol] | 501 to 10000 nM | 71% | 79% | 9.6 ×10⁻⁶ cm/s | 34.7 ×10⁻⁶ cm/s | 4
12 | CN(c1cnc(-c2ccc(-c3cnn(C)c3)cc2O)cn1)[C@@H]1C[C@H]2CCC[C@H](N2)[C@@H]1F [Compound 4E1, 2-(5-(((1S,2S,3R,5R)-2-fluoro-9-azabicyclo[3.3.1]nonan-3-yl)(methyl)amino)pyrazin-2-yl)-5-(1-methyl-1H-pyrazol-4-yl)phenol] | 51 to 100 nM | 44% | 66% | 4.89 ×10⁻⁶ cm/s | 31.4 ×10⁻⁶ cm/s | 6
13 | CN(c1cnc(-c2cc3ncn(CC(F)(F)F)c(=O)c3cc2O)cn1)[C@H]1C[C@@H]2CCC[C@@H](N2)[C@H]1F [Compound 18E2, 7-(5-(((1R,2R,3S,5S)-2-fluoro-9-azabicyclo[3.3.1]nonan-3-yl)(methyl)amino)pyrazin-2-yl)-6-hydroxy-3-(2,2,2-trifluoroethyl)quinazolin-4(3H)-one] | 501 to 10000 nM | 82% | 87% | 1.33 ×10⁻⁶ cm/s | 73.5 ×10⁻⁶ cm/s | 56
14 | CN(c1cnc(-c2ccc(-c3cn[nH]c3)cc2O)cn1)[C@@H]1C[C@@]2(C)CCC[C@](C)(N2)[C@@H]1F [Compound 23E1, 2-(5-(((1S,2R,3R,5R)-2-fluoro-1,5-dimethyl-9-azabicyclo[3.3.1]nonan-3-yl)(methyl)amino)pyrazin-2-yl)-5-(1H-pyrazol-4-yl)phenol] | 501 to 10000 nM | 56% | 78% | 9.07 ×10⁻⁶ cm/s | 38.7 ×10⁻⁶ cm/s | 4
15 | COc1cc(-c2ccc(-c3cnc(N(C)[C@@H]4C[C@@]5(C)CCC[C@](C)(N5)[C@@H]4F)cn3)c(O)c2)cnn1 [Compound 24E1, 2-(5-(((1S,2R,3R,5R)-2-fluoro-1,5-dimethyl-9-azabicyclo[3.3.1]nonan-3-yl)(methyl)amino)pyrazin-2-yl)-5-(6-methoxypyridazin-4-yl)phenol] | 101 to 500 nM | 40% | 42% | 1.93 ×10⁻⁶ cm/s | 5.01 ×10⁻⁶ cm/s | 3
16 | COc1cc(-c2ccc(-c3cnc(N(C)[C@H]4C[C@]5(C)CCC[C@@](C)(N5)[C@H]4F)cn3)c(O)c2)cnn1 [Compound 24E2, 2-(5-(((1R,2S,3S,5S)-2-fluoro-1,5-dimethyl-9-azabicyclo[3.3.1]nonan-3-yl)(methyl)amino)pyrazin-2-yl)-5-(6-methoxypyridazin-4-yl)phenol] | 501 to 10000 nM | 37% | 44% | 3.01 ×10⁻⁶ cm/s | 6.99 ×10⁻⁶ cm/s | 2
17 | CN(c1cnc(-c2ccc(-c3cn[nH]c3)cc2O)cn1)[C@@H]1C[C@@]2(C)CC[C@H](N2)[C@@H]1F [Compound 28E4, 2-(5-(((1R,3R,4S,5S)-4-fluoro-1-methyl-8-azabicyclo[3.2.1]octan-3-yl)(methyl)amino)pyrazin-2-yl)-5-(1H-pyrazol-4-yl)phenol] | 501 to 10000 nM | 68% | 84% | 4.42 ×10⁻⁶ cm/s | 48.4 ×10⁻⁶ cm/s | 11
18 | CN(c1cnc(-c2cc(F)c(-c3ccn(CF)c(=O)c3)cc2O)cn1)[C@@H]1C[C@H]2CC[C@H](N2)[C@@H]1F [Compound 32E1, 4-(2-fluoro-4-(5-(((1S,2S,3R,5R)-2-fluoro-8-azabicyclo[3.2.1]octan-3-yl)(methyl)amino)pyrazin-2-yl)-5-hydroxyphenyl)-1-(fluoromethyl)pyridin-2(1H)-one] | 501 to 10000 nM | 101% | 92% | 3.13 ×10⁻⁶ cm/s | 58.7 ×10⁻⁶ cm/s | 19
19 | Cn1cc(-c2cc(O)c(-c3cnc(N(C4CC4)[C@@H]4C[C@H]5CC[C@H](N5)[C@@H]4F)cn3)cc2F)cn1 [Compound 35E1, 2-(5-(cyclopropyl((1S,2S,3R,5R)-2-fluoro-8-azabicyclo[3.2.1]octan-3-yl)amino)pyrazin-2-yl)-4-fluoro-5-(1-methyl-1H-pyrazol-4-yl)phenol] | 501 to 10000 nM | 36% | 62% | 3 ×10⁻⁶ cm/s | 17.9 ×10⁻⁶ cm/s | 6
20 | CN(c1cnc(-c2cc(F)c(-c3cnn(C)c3)cc2O)cn1)[C@@H]1C[C@@]2(C)CC[C@](C)(N2)[C@@H]1F [Compound 58E1, 4-fluoro-2-(5-(((1S,2R,3R,5R)-2-fluoro-1,5-dimethyl-8-azabicyclo[3.2.1]octan-3-yl)(methyl)amino)pyrazin-2-yl)-5-(1-methyl-1H-pyrazol-4-yl)phenol] | 101 to 500 nM | 37% | 64% | 7.67 ×10⁻⁶ cm/s | 22.1 ×10⁻⁶ cm/s | 3
